Assay results taken from US20170008888A1 (KYORIN PHARMACEUTICAL CO., LTD., priority 2014, published 2017).

Legend:
Assay type in all cases: binding
ERK5 = biological target: T1, ERK5 (Homo sapiens, UniProt Q13164); assay: Probe-based (AX9989 acyl phosphate ATP probe) kinase profiling in Jurkat lysate: ERK5; conditions: for IC50: calculated from percent inhibition of AX9989 labeling and the screening concentration, Jurkat lysate; for inhibition at 1 µM: screening concentration 1.0 μM, read-out: Kinase inhibition % at indicated screening concentration: ERK5
T1 construct: screened for activity against several kinases in Jurkat cells; endogenous in cells; host or cells: Jurkat cell lysate
T1 sequence (Q13164 whole entry): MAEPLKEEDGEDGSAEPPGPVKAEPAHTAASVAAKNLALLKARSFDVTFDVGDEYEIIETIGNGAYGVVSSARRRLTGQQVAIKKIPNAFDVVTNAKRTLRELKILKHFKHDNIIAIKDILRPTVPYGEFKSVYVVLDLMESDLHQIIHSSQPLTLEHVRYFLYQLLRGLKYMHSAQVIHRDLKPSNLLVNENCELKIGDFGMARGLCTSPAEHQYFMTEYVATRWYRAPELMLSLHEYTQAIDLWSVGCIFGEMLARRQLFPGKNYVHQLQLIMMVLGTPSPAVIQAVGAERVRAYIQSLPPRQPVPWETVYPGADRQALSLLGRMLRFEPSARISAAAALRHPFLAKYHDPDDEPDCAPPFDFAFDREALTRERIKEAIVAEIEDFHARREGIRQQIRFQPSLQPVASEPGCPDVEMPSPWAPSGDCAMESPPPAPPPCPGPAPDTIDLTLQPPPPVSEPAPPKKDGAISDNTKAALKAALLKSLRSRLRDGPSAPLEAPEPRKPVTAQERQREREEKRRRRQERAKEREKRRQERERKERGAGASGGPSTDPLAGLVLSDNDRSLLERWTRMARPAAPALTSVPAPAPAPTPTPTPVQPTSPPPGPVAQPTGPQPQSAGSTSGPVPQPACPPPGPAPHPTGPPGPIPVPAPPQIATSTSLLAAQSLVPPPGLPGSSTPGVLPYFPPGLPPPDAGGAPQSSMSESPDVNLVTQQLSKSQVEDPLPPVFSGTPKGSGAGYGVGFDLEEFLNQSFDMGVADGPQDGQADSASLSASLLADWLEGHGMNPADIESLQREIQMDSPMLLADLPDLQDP
Method: (§1) In this example, potency of the compounds as ERK5 inhibitors was assessed, and the compounds were screened for activity against several kinases in Jurkat cells.
(§2) Jurkat cell pellets were resuspended in four volumes of lysis buffer (50 mM HEPES pH 7.5, 150 mM NaCl, 0.1% Triton-X-100, 1% v/v phosphatase, inhibitor cocktail II [EMD/Calbiochem, #524625]), sonicated using a tip, sonicator, and Dounce homogenized. Lysate was cleared by centrifugation, at 16,000 g for 15 min., was gel filtered (BioRad 10DG) and MnCl2 was then added to a final concentration of 20 mM before treatment with the test compound and probe labeling. […] All compound treatments were performed at room temperature.
(§3) Acyl phosphate ATP probe (AX9989) labeling reactions were performed at room temperature with a final probe concentration of 5 μM after a 15 min pre-incubation of lysate with a test compound. All reactions were performed in duplicate, using 445 μl/sample at 5 mg/ml. Probe-labeled lysates were denatured and reduced (6 M urea, 10 mM DTT, 65° C., 15 min), alkylated (40 mM iodoacetamide, 37° C., 30 min, and gel filtered (Sephadex G25) into 10 mM ammonium bicarbonate, 2 M urea, 5 mM methionine. The desalted protein mixture was digested with trypsin (0.015 mg/ml) for 1 hr at 37° C., and desthiobiotinylated peptides were captured using a […] high-capacity streptavidin resin (Thermo Scientific). Captured peptides were then washed extensively using 150 μl/wash with three different wash buffers: (A) 3 times with 1% triton, 0.5% tergitol, 1 mM EDTA in PBS; (B) 18 times with PBS; and (C) 8 times with HPLC grade water. Peptides were eluted from the streptavidin beads using two 35-μL washes of a 50% CH3CN/water mixture containing 0.1% TFA at room temperature.
(§4) Kinase active site peptides were identified and quantified using LC/MS. Percent inhibition was calculated as the normalized decrease in the ESI-MS fragment intensities of probe-labeled peptides in samples incubated with the test compound compared to those without.
ERK5 IC50 values were calculated from the percent inhibition and the screening concentration.

AurA = biological target: T2, AurA (Homo sapiens, UniProt O14965); assay: Probe-based (AX9989) kinase profiling in Jurkat lysate: AurA; conditions: screening concentration 1.0 μM; read-out: Kinase inhibition % at indicated screening concentration: AurA
T2 construct: screened for activity against several kinases in Jurkat cells; endogenous in cells; host or cells: Jurkat cell lysate
T2 sequence (O14965 1-403): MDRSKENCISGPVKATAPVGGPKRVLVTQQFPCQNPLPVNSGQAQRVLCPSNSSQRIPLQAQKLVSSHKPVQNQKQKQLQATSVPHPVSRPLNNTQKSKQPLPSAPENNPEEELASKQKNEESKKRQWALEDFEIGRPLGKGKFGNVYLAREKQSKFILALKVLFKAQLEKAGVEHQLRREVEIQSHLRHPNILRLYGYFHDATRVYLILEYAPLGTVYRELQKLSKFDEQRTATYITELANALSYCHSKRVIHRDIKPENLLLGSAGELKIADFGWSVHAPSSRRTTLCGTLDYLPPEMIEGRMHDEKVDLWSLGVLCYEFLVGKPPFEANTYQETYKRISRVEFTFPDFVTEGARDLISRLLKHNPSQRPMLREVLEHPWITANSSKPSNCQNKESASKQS
Method: as §1, §2, §3, §4

AurB or AurC = assay: Probe-based (AX9989) kinase profiling in Jurkat lysate: AurB or AurC; conditions: screening concentration 1.0 μM
Method: as §1, §2, §3, §4

JAK1 = biological target: T3, JAK1 (Homo sapiens, UniProt P23458); assay: Probe-based (AX9989) kinase profiling in Jurkat lysate: JAK1; conditions: screening concentration 1.0 μM; read-out: Kinase inhibition % at indicated screening concentration: JAK1
T3 construct: screened for activity against several kinases in Jurkat cells; endogenous in cells; host or cells: Jurkat cell lysate
T3 sequence (P23458 whole entry): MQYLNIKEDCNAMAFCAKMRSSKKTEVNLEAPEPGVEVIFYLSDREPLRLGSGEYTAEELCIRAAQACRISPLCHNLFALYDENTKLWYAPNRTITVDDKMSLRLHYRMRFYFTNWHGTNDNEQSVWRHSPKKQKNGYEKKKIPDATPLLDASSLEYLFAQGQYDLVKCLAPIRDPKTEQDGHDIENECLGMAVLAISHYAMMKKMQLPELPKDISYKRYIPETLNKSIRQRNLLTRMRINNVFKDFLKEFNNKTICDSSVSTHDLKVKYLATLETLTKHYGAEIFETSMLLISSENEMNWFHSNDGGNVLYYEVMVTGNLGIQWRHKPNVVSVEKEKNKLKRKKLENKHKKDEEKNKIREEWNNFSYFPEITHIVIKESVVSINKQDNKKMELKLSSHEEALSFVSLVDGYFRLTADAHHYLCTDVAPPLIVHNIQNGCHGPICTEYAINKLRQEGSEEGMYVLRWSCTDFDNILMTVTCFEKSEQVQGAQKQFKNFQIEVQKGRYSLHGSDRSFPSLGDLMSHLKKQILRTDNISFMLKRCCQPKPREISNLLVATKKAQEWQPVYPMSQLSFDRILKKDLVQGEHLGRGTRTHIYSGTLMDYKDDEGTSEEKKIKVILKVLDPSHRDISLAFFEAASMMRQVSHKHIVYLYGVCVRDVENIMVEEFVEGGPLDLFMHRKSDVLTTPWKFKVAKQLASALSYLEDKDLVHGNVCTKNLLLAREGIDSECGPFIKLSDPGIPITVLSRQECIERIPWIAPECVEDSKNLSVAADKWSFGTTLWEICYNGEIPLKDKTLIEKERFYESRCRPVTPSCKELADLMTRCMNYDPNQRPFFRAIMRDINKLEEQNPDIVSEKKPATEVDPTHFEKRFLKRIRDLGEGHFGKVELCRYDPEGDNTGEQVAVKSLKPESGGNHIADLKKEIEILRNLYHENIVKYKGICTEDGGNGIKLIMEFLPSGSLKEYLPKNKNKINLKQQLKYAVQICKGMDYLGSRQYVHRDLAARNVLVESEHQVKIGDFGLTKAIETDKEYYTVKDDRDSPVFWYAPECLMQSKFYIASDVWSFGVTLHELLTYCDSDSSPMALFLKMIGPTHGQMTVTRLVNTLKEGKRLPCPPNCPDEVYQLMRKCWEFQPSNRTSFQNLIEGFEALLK
Method: as §1, §2, §3, §4

AMPKa1 or AMPKa2 = assay: Probe-based (AX9989) kinase profiling in Jurkat lysate: AMPKa1 or AMPKa2; conditions: screening concentration 1.0 μM
Method: as §1, §2, §3, §4

TAO2 = biological target: T4, TAO2 (Homo sapiens, UniProt Q9UL54); assay: Probe-based (AX9989) kinase profiling in Jurkat lysate: TAO2; conditions: screening concentration 1.0 μM; read-out: Kinase inhibition % at indicated screening concentration: TAO2
T4 construct: screened for activity against several kinases in Jurkat cells; endogenous in cells; host or cells: Jurkat cell lysate
T4 sequence (Q9UL54 1-1235): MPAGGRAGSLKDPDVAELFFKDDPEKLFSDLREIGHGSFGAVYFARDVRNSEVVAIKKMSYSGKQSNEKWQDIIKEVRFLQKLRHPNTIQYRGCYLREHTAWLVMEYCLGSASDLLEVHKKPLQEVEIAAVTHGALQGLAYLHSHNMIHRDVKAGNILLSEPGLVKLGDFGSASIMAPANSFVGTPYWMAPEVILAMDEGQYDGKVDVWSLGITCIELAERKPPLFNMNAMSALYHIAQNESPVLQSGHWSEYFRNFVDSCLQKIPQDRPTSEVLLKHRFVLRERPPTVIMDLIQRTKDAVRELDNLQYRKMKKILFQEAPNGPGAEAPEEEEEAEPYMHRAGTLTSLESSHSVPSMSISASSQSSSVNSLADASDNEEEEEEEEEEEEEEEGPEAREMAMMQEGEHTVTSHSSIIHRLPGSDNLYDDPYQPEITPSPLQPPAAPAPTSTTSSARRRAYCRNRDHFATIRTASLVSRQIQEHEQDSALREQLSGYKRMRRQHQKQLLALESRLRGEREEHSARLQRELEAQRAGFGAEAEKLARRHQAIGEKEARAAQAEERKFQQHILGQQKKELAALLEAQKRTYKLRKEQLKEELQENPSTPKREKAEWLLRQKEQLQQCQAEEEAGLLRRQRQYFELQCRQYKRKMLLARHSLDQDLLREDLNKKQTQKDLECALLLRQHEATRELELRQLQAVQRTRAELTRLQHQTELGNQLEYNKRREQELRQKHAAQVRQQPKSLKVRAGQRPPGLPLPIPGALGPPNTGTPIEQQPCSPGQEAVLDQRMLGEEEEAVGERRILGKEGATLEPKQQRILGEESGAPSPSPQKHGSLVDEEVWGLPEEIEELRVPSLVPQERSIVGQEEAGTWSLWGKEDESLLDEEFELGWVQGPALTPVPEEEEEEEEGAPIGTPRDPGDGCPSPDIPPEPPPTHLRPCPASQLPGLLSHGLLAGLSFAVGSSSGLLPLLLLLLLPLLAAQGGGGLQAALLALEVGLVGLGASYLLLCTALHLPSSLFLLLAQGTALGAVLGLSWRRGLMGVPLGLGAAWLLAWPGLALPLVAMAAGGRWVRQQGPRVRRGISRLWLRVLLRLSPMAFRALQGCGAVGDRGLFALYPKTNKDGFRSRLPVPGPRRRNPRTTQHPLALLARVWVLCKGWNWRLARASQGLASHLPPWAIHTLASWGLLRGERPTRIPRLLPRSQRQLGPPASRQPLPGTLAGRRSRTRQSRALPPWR
Method: as §1, §2, §3, §4

ACK = biological target: T5, ACK (Homo sapiens, UniProt Q07912); assay: Probe-based (AX9989) kinase profiling in Jurkat lysate: ACK; conditions: screening concentration 1.0 μM; read-out: Kinase inhibition % at indicated screening concentration: ACK
T5 construct: screened for activity against several kinases in Jurkat cells; endogenous in cells; host or cells: Jurkat cell lysate
T5 sequence (Q07912 whole entry): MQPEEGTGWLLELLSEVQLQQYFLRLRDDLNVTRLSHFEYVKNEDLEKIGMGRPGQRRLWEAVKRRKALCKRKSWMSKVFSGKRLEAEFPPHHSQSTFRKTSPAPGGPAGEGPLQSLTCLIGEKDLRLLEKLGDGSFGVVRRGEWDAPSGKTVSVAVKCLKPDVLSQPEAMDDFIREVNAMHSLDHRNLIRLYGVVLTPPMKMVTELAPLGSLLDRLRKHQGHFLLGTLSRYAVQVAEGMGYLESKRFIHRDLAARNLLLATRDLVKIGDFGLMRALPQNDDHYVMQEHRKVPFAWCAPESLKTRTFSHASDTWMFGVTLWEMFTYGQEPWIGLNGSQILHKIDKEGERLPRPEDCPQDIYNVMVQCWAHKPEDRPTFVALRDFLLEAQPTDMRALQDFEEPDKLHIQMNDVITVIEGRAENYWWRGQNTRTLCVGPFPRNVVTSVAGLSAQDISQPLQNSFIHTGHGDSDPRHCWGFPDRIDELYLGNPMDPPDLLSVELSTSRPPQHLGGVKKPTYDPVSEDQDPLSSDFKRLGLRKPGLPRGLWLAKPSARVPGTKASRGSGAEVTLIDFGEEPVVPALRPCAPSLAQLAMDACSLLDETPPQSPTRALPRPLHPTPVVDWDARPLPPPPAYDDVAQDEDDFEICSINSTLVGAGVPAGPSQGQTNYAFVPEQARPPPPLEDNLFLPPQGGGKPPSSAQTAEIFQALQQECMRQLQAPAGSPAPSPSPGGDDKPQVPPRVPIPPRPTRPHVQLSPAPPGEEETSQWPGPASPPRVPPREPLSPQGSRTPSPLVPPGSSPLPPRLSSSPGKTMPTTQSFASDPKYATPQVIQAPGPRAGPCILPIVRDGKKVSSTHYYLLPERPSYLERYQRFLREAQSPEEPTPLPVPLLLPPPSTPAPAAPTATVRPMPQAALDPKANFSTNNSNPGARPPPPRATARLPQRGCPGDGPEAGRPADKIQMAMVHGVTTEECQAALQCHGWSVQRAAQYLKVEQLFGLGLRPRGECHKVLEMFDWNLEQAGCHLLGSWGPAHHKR
Method: as §1, §2, §3, §4

ABL or ARG = assay: Probe-based (AX9989) kinase profiling in Jurkat lysate: ABL or ARG; conditions: screening concentration 1.0 μM
Method: as §1, §2, §3, §4

SMILES	IC50 (ERK5) [nM]	inhibition at 1 µM (ERK5) [%]	inhibition at 1 µM (AurA) [%]	Kinase inhibition % at indicated screening concentration: AurB or AurC (AurB or AurC)	inhibition at 1 µM (JAK1) [%]	Kinase inhibition % at indicated screening concentration: AMPKa1 or AMPKa2 (AMPKa1 or AMPKa2)	inhibition at 1 µM (TAO2) [%]	inhibition at 1 µM (ACK) [%]	Kinase inhibition % at indicated screening concentration: ABL or ARG (ABL or ARG)
COc1ccccc1Nc1cc2c(cn1)N(C)C(=O)c1ccccc1N2C [Compound 19]	> 500	50 to 75	≤ 35	E (E is ≦35%)	≤ 35	E (E is ≦35%)	≤ 35	≤ 35	E (E is ≦35%)
Cc1nn(C)cc1Nc1cc2c(cn1)N(C)C(=O)c1ccccc1N2C [Compound 22]	101 to 500	75 to 90	≤ 35	E (E is ≦35%)	≤ 35	E (E is ≦35%)	≤ 35	≤ 35	E (E is ≦35%)
CCOc1cc(C(=O)N2CCC(N3CCCC3)CC2)ccc1Nc1cc2c(cn1)N(C)C(=O)c1scnc1N2C [Compound 34]	–	> 90	≤ 35	E (E is ≦35%)	≤ 35	E (E is ≦35%)	≤ 35	≤ 35	E (E is ≦35%)
COc1ccc(C(=O)O)cc1Nc1cc2c(cn1)N(C)C(=O)c1ccccc1N2C [Compound 36]	> 500	35 to 50	≤ 35	E (E is ≦35%)	≤ 35	E (E is ≦35%)	≤ 35	≤ 35	E (E is ≦35%)
Cc1cc(O)ccc1Nc1cc2c(cn1)N(C)C(=O)c1ccccc1N2C [Compound 38]	101 to 500	50 to 75	≤ 35	E (E is ≦35%)	≤ 35	E (E is ≦35%)	≤ 35	≤ 35	E (E is ≦35%)
Cc1ccccc1Nc1cc2c(cn1)N(C)C(=O)c1ccccc1N2C [Compound 58]	> 500	50 to 75	≤ 35	E (E is ≦35%)	≤ 35	E (E is ≦35%)	≤ 35	≤ 35	E (E is ≦35%)
CN1C(=O)c2ccccc2N(C)c2cc(N[C@H]3CC[C@H](NC(=O)N4CCCC4)CC3)ncc21 [Compound 60]	101 to 500	75 to 90	≤ 35	E (E is ≦35%)	≤ 35	E (E is ≦35%)	≤ 35	≤ 35	E (E is ≦35%)
CN1C(=O)C2CCCCC2N(C)c2cc(NC3CCC(O)CC3)ncc21 (centres unmarked) [Compound 76]	> 500	≤ 35	≤ 35	E (E is ≦35%)	≤ 35	E (E is ≦35%)	≤ 35	≤ 35	E (E is ≦35%)
CN(C)CCn1cc(Nc2cc3c(cn2)N(C)C(=O)c2ccccc2N3C)cn1 [Compound 77]	101 to 500	75 to 90	50 to 75	B (B is >75% to ≦90%)	≤ 35	E (E is ≦35%)	35 to 50	≤ 35	E (E is ≦35%)
